Experimental data from PubChem BioAssay (NCI).
Values joined by “and” are separate entries in the source; they are usually repeats but may differ in a detail not shown here. Equal entries are not always repeated.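 Cultured in 96-well plates, cells were exposed to test compound for 48 hours across five concentrations. GI50: concentration for 50% inhibition of growth. The concentration for full growth arrest is given as TGI.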

Test system: P388 leukemia
Experiment: NCI tumour cell line growth inhibition, 48 h

Compound | GI50 | TGI
N#Cc1cn(C2OC(CO)C(O)C2O)c2ncnc(N)c12 (stereo not drawn) | 0.00528 µM and 0.045 µM | 0.137 µM and 0.0463 µM
COc1ccc(C(=O)/C(Br)=C/C(=O)O)cc1 | – | 53.7 µM
